Data: patent US11639350B2, “Heteroaryldihydropyrimidine derivatives and methods of treating hepatitis B infections” (Janssen Pharmaceutica NV, priority 2018, dated 2023)
Like-named read-outs stand apart in the source and are kept apart here.

Legend:
HBV = HBV inhibitory activity: HBV DNA in the culture medium of HepG2.2.15 cells by q-PCR; format: cell-based; settings: HepG2.2.15 cells, 6 days of compound treatment, HBV DNA in culture medium by q-PCR, highest concentration 10 μM, read-out: EC50
Outline: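 Supernatant HBV DNA quantified by q-PCR after a 6-day compound exposure, with one mid-course medium change, of HepG2.2.15 cells (stably integrated HBV; 40,000 per well, 2% FBS). Eight-point 3-fold series topped at 10 μM for antiviral EC50; separate plates of 5,000 cells per well with 100 μM top give CC50.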

[1] = Cytotoxicity determination in HepG2.2.15 cells (CCK-8); format: cell-based; settings: human, 6 days of compound treatment, CCK-8, highest concentration 100 μM
Outline: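 CC50 is from CCK-8 absorbance (450 nm, 630 nm reference) after 2.5 h with reagent. Before that, compounds were applied for six days, top concentration 100 μM, eight threefold dilutions, one mid-course medium change, to stably HBV-integrated HepG2.2.15 cells plated at 5,000/well in 2% FBS.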

[2] = Hepatitis B virus, HepG2.2.15, 144 h

| SMILES | EC50 (HBV; [2]) | CC50 at 6 days [1] | EC50 (HBV) |
| --- | --- | --- | --- |
| COCCOCCOCCOCCS(=O)(=O)N1CCC(C2=C(C(=O)OC)C(c3ccc(F)cc3Cl)N=C(c3nccs3)N2)CC1 (stereo not drawn) [Compound 460, Methyl 6-(1-(2,5,8,11-tetraoxatridecan-13-ylsulfonyl)piperidin-4-yl)-4-(2-chloro-4-fluorophenyl)-2-(thiazol-2-yl)-1,4-dihydropyrimidine-5-carboxylate] | 0.008 µM | 19.9 µM | – |
| COC(=O)C1=C(C2CCN(S(=O)(=O)[C@H]3C[C@@H](C(=O)O)C3)C2)NC(c2nccs2)=NC1c1ccc(F)cc1Cl (relative stereo) [Compound 367B, (cis)-3-((3-(6-(2-chloro-4-fluorophenyl)-5-(methoxycarbonyl)-2-(thiazol-2-yl)-3,6-dihydropyrimidin-4-yl)pyrrolidin-1-yl)sulfonyl)cyclobutanecarboxylic Acid] | 0.8 µM | > 100 µM | – |
| COC(=O)C1=C(C2CCN(S(=O)(=O)CCC(=O)O)CC2)NC(c2nccs2)=NC1c1ccc(F)cc1Cl (stereo not drawn) [Compound 105, 3-((4-(6-(2-Chloro-4-fluorophenyl)-5-(methoxycarbonyl)-2-(thiazol-2-yl)-3,6-dihydropyrimidin-4-yl)piperidin-1-yl)sulfonyl)propanoic Acid] | 0.15 µM | 14.4 µM | – |
| COC(=O)C1=C(C2(F)CCN(S(C)(=O)=O)CC2)NC(c2nccs2)=NC1c1cccc(F)c1Cl (stereo not drawn) [Compound 36, Methyl 4-(2-chloro-3-fluorophenyl)-6-(4-fluoro-1-(methylsulfonyl)-piperidin-4-yl)-2-(thiazol-2-yl)-1,4-dihydropyrimidine-5-carboxylate] | 0.153 µM | 20.7 µM | – |
| COC(=O)C1=C(C2CCCN(S(C)(=O)=O)CC2)NC(c2nccs2)=NC1c1ccc(F)cc1Cl (single isomer, unassigned) [Compound 383A, Methyl 4-(2-chloro-4-fluorophenyl)-6-(1-(methylsulfonyl)azepan-4-yl)-2-(thiazol-2-yl)-1,4-dihydropyrimidine-5-carboxylate] | 0.087 µM | 32.9 µM | – |
| CCOC(=O)C1=C(C2CCN(S(=O)(=O)[C@H]3C[C@H](C(=O)O)C3)CC2)NC(c2nccs2)=NC1c1ccc(F)c(F)c1Br (stereo partly drawn) [Compound 199A, (trans)-3-((4-(6-(2-bromo-3,4-difluorophenyl)-5-(ethoxycarbonyl)-2-(thiazol-2-yl)-3,6-dihydropyrimidin-4-yl)piperidin-1-yl)sulfonyl)cyclobutanecarboxylic Acid] | 0.056 µM | 35.8 µM | – |
| COC(=O)C1=C(C2CCCCO2)NC(c2nccs2)=NC1c1ccc(F)cc1Cl (single isomer, unassigned) [Compound 49C, Methyl 4-(2-chloro-4-fluorophenyl)-6-(tetrahydro-2H-pyran-2-yl)-2-(thiazol-2-yl)-1,4-dihydropyrimidine-5-carboxylate] | 0.202 µM | 84.6 µM | – |
| COC(=O)C1=C(C2CC(C(=O)OC)C2)NC(c2nccs2)=NC1c1ccc(F)cc1Cl (single isomer, unassigned) [Compound 85C, 4-(2-Chloro-4-fluoro-phenyl)-6-(3-methoxycarbonyl-cyclobutyl)-2-thiazol-2-yl-1,4-dihydro-pyrimidine-5-carboxylic Acid Methyl Ester] | 0.6 µM | 95.4 µM | – |
| COC(=O)C1=C(C23CC(NC(C)=O)(C2)C3)NC(c2nccs2)=NC1c1ccc(F)cc1Cl (stereo not drawn) [Compound 391B, Methyl 6-(3-acetamidobicyclo[1.1.1]pentan-1-yl)-4-(2-chloro-4-fluorophenyl)-2-(thiazol-2-yl)-1,4-dihydropyrimidine-5-carboxylate] | 0.068 µM | 46.8 µM | – |
| COCCNS(=O)(=O)[C@H]1CC[C@@H](C2=C(C(=O)OC)C(c3ccc(F)c(F)c3Cl)N=C(c3nccs3)N2)CC1 (single isomer, unassigned) [Compound 359B, (cis)-Methyl 4-(2-chloro-3,4-difluorophenyl)-6-(4-(N-(2-methoxyethyl)sulfamoyl)cyclohexyl)-2-(thiazol-2-yl)-1,4-dihydropyrimidine-5-carboxylate] | 0.055 µM | 10.5 µM | – |
| COC(=O)C1=C(C2CCOCC2)NC(c2nccs2)=NC1c1cccc(F)c1Cl (single isomer, unassigned) [Compound 50B, 4-(2-Chloro-3-fluoro-phenyl)-6-(tetrahydro-pyran-4-yl)-2-thiazol-2-yl-1,4-dihydro-pyrimidine-5-carboxylic acid methyl ester] | 0.27 µM | 35.6 µM | – |
| COC(=O)C1=C([C@H]2CC[C@@H](NS(C)(=O)=O)CC2)NC(c2nccs2)=NC1c1ccc(F)cc1Cl (single isomer, unassigned) [Compound 128D, Methyl 4-(2-chloro-4-fluorophenyl)-6-(cis-4-(methylsulfonamido)-cyclohexyl)-2-(thiazol-2-yl)-1,4-dihydropyrimidine-5-carboxylate] | 0.017 µM | 22.8 µM | – |
| COC[C@H](O)CN([C@H]1CC[C@H](C2=C(C(=O)OC)C(c3ccc(F)c(F)c3Cl)N=C(c3nccs3)N2)CC1)S(C)(=O)=O (single isomer, unassigned) [Compound 245B] | 0.049 µM | 12.3 µM | – |
| CNS(=O)(=O)[C@H]1CC[C@@H](C2=C(C(=O)OC)C(c3cccc(F)c3Cl)N=C(c3nccs3)N2)CC1 (single isomer, unassigned) [Compound 259C, (cis)-methyl 4-(2-chloro-3-fluorophenyl)-6-(4-(N-methylsulfamoyl)cyclohexyl)-2-(thiazol-2-yl)-1,4-dihydropyrimidine-5-carboxylate] | 0.036 µM | 12.7 µM | – |
| CCOC(=O)C1=C([C@@H]2C[C@H](NS(C)(=O)=O)CO2)NC(c2nccs2)=NC1c1cccc(F)c1Cl (relative stereo) [Compound 261, (cis)-Ethyl 4-(2-chloro-3-fluorophenyl)-6-(4-(methylsulfonamido)-tetrahydrofuran-2-yl)-2-(thiazol-2-yl)-1,4-dihydropyrimidine-5-carboxylate] | 0.142 µM | 37.5 µM | – |
| COCCOCCS(=O)(=O)N1CCC(C2=C(C(=O)OC)C(c3ccc(F)cc3Cl)N=C(c3nccs3)N2)CC1 (stereo not drawn) [Compound 464, Methyl 4-(2-chloro-4-fluorophenyl)-6-(1-((2-(2methoxyethoxy)ethyl)sulfonyl)piperidin-4-yl)-2-(thiazol-2-yl)-1,4-dihydropyrimidine-5-carboxylate] | < 0.0046 µM | 29.4 µM | – |
| CCOC(=O)C1=C([C@H]2CC[C@H](C(=O)O)CC2)NC(c2nccs2)=NC1c1ccc(F)cc1Cl (single isomer, unassigned) [Compound 21, trans-4-(6-(2-Chloro-4-fluorophenyl)-5-(ethoxycarbonyl)-2-(thiazol-2-yl)-3,6-dihydropyrimidin-4-yl)cyclohexanecarboxylic Acid] | 0.031 µM | 9.9 µM | – |
| COC(=O)C1=C(C2CCN(S(=O)(=O)c3cnn([C@H]4C[C@H](C(=O)O)C4)c3)CC2)NC(c2nccs2)=NC1c1ccc(F)cc1Cl (stereo partly drawn) [Compound 470, (trans)-3-(4-((4-(6-(2-Chloro-4-fluorophenyl)-5-(methoxycarbonyl)-2-(thiazol-2-yl)-3,6-dihydropyrimidin-4-yl)piperidin-1-yl)sulfonyl)-1H-pyrazol-1-yl)cyclobutanecarboxylic Acid] | 0.056 µM | 20.1 µM | – |
| COC(=O)C1=C([C@H]2CC[C@H](C(=O)OC)CC2)NC(c2nccs2)=NC1c1ccc(F)cc1Br (relative stereo) [Compound 224, (trans)-Methyl 4-(2-bromo-4-fluorophenyl)-6-(4-(methoxycarbonyl)cyclohexyl)-2-(thiazol-2-yl)-1,4-dihydropyrimidine-5-carboxylate] | 0.071 µM | 28.4 µM | – |
| COC(=O)C1=C(C2CCN(S(=O)(=O)CCC(=O)O)CC2)NC(c2nccs2)=NC1c1cccc(F)c1Cl (stereo not drawn) [Compound 114, 3-((4-(6-(2-Chloro-3-fluorophenyl)-5-(methoxycarbonyl)-2-(thiazol-2-yl)-3,6-dihydro-pyrimidin-4-yl)piperidin-1-yl)sulfonyl)propanoic Acid] | 0.04 µM | 27.5 µM | – |
| COC(=O)C1=C(C2CCN(C(=O)CO)CC2)NC(c2nccs2)=NC1c1ccc(F)cc1Cl (single isomer, unassigned) [Compound 122B, Methyl 4-(2-chloro-4-fluorophenyl)-6-(1-(2-hydroxyacetyl)-piperidin-4-yl)-2-(thiazol-2-yl)-1,4-dihydropyrimidine-5-carboxylate] | 0.057 µM | 31.6 µM | – |
| COC(=O)C1=C([C@H]2CC[C@H](C(=O)O)CC2)NC(c2nccs2)=NC1c1ccc(F)c(F)c1C (stereo partly drawn) [Compound 227A, (trans)-4-(−6-(3,4-Difluoro-2-methylphenyl)-5-(methoxycarbonyl)-2-(thiazol-2-yl)-3,6-dihydropyrimidin-4-yl)cyclohexanecarboxylic Acid] | 0.096 µM | 37.6 µM | – |
| COC(=O)C1=C(C23CC(N(C[C@@H](O)CO)S(C)(=O)=O)(C2)C3)NC(c2nccs2)=NC1c1ccc(F)cc1Cl (single isomer, unassigned) [Compound 376C] | – | 95 µM | 0.075 µM |
| COC(=O)C1=C([C@H]2CCCC(C(=O)O)C2)NC(c2nccs2)=NC1c1cccc(F)c1Cl (stereo in doubt) [Compound 25, cis-3-(6-(2-Chloro-3-fluorophenyl)-5-(methoxycarbonyl)-2-(thiazol-2-yl)-3,6-dihydropyrimidin-4-yl)cyclohexanecarboxylic Acid] | 0.165 µM | 35.3 µM | – |
